PMC9501014, “Amaryllidaceae-Type Alkaloids from Pancratium maritimum: Apoptosis-Inducing Effect and Cell Cycle Arrest on Triple-Negative Breast Cancer Cells” (Molecules, 2022)
Like-named read-outs stand apart in the source and are kept apart here.

Assays:
HFF-1 cells = experiment: Sulforhodamine B antiproliferative assay, non-tumorigenic fibroblast HFF-1; assay type: cell-based; details: Homo sapiens, 48 h of treatment, read-out: IC50 HFF-1 (E)
Experimental: (§1) The antiproliferative effect of the isolated compounds (1–11) was investigated by the sulforhodamine B assay against human triple-negative breast cancer cell lines (MDA-MB-468 and MDA-MB-231) and breast ductal carcinoma cells (MCF-7) and the non-tumorigenic fibroblast (HFF-1) and breast cell lines (MCF12A). The IC50 values were determined after 48 h of treatment (Table 1).
(§2) Human breast adenocarcinoma MDA-MB-231, MDA-MB-468, and MCF-7 cell lines and non-tumorigenic foreskin fibroblast (HFF-1) and breast (MCF12A) cell lines were purchased from American Type Culture Collection (ATCC, Rockville, MD, USA). All cancer cell lines, except MCF12A, were routinely cultured in RPMI-1640 medium with glutamine from Corning (VWR, Carnaxide, Portugal) supplemented with 10% fetal bovine serum (FBS) from Biowest (Labclinics, Barcelona, Spain). MCF12A cells were cultured in a 1:1 mixture of Dulbecco’s modified Eagle’s medium and Ham’s F12 medium, 20 ng/mL human epidermal growth factor, 100 ng/mL cholera toxin, 0.01 mg/mL bovine insulin, and 500 ng/mL hydrocortisone and supplemented with 10% FBS. All cells were maintained in a humidified incubator at 37 °C with 5% CO2. All cells were routinely tested for mycoplasma contamination using the MycoAlertTM PLUS detection kit (Lonza, Basel, Switzerland).
(§3) Human cell lines were seeded in 96-well plates at a density of 5.0 × 10^3 (MDA-MB-231, MCF-7, HFF-1, and MCF12A) and 7.5 × 10^3 (MDA-MB-468) cells/well and allowed to adhere for 24 h. Cells were treated with serial dilutions of compounds (ranging from 0.1 to 40 μM) for an additional 48 h. Effect on cell proliferation was measured by sulforhodamine B assay, as described in [33], and the half-maximal inhibitory concentration (IC50) was then determined for each cell line using the GraphPad Prism software version 7.0 (La Jolla, CA, USA).

MDA-MB-231 cells [1] = system: MDA-MB-231 cells; parameters: method as in PMID 28756149; details: previous studies ref 30; cited from earlier work
[2] = system: breast cancer cell lines (MDA-MB-231, MDA-MB-468, MCF-7); experiment: Sulforhodamine B assay, all breast cancer cell lines; assay type: cell-based; details: Homo sapiens, read-out: IC50 values against all breast cancer cell lines
Experimental: Aiming to find Amaryllidaceae alkaloids against breast cancer, including the highly aggressive triple-negative breast cancer, the phytochemical study of Pancratium maritimum was carried out. Several Amaryllidaceae-type alkaloids, bearing scaffolds of the haemanthamine-, homolycorine-, lycorine-, galanthamine-, and tazettine-type were isolated (3–11), along with one alkamide (2) and a phenolic compound (1). The antiproliferative effect of compounds (1–11) was evaluated by the sulforhodamine B assay against triple-negative breast cancer cell lines MDA-MB-231 and MDA-MB-468, breast cancer cells MCF-7, and the non-malignant fibroblast (HFF-1) and breast (MCF12A) cell lines. […] The homolycorine-type alkaloid 7 was selected for further investigation in MDA-MB-231 cells. In the annexin-V assay, compound 7 increased cell death by apoptosis, which was substantiated, in western blot analyses, by the increased expression of the pro-apoptotic protein Bax, and the decreased expression of the anti-apoptotic protein Bcl-xL. Consistently, it further stimulated mitochondrial reactive oxygen species (ROS) generation. The antiproliferative effect of compound 7 was also associated with G2/M cell cycle arrest, which was supported by an increase in the p21 protein expression levels.
as §3

MDA-MB-231 cells [3] = experiment: Sulforhodamine B antiproliferative assay, MDA-MB-231; assay type: cell-based, human; details: for IC50: sulforhodamine B assay, 48 h of treatment, read-out: IC50 MDA-MDB-231 (A); for SI E/A / SI D/A: selectivity index; for SI E/A: HFF-1 vs MDA-MB-231; for SI D/A: MCF12A vs MDA-MB-231
Experimental: as §1, §2, §3

MDA-MB-468 cells = experiment: Sulforhodamine B antiproliferative assay, MDA-MB-468; assay type: cell-based, human; details: for IC50: sulforhodamine B assay, 48 h of treatment; for SI E/B / SI D/B: selectivity index; for SI E/B: HFF-1 vs MDA-MB-468; for SI D/B: MCF12A vs MDA-MB-468
Experimental: as §1, §2, §3

MCF12A cells = experiment: Sulforhodamine B antiproliferative assay, non-tumorigenic breast MCF12A; assay type: cell-based; details: Homo sapiens, MCF-12A, 48 h of treatment, read-out: IC50 MCF12A (D)
Experimental: as §1, §2, §3

MCF-7 cells = experiment: Sulforhodamine B antiproliferative assay, MCF-7; assay type: cell-based, human; details: for IC50: sulforhodamine B assay, 48 h of treatment, read-out: IC50 MCF-7 (C); for SI E/C / SI D/C: selectivity index; for SI E/C: HFF-1 vs MCF-7; for SI D/C: MCF12A vs MCF-7
Experimental: as §1, §2, §3

[4] = range over the four alkaloids and MDA-MB-231, MDA-MB-468, MCF-7

Row | SMILES | IC50 (HFF-1 cells) [µM] | IC50 (MDA-MB-231 cells [3]; Homo sapiens, MDA-MB-231, 48 h) [µM] | SI E/A (MDA-MB-231 cells [3]) | SI D/A (MDA-MB-231 cells [3]) | SI E/B (MDA-MB-468 cells) | SI D/B (MDA-MB-468 cells) | IC50 (MCF12A cells) [µM] | SI E/C (MCF-7 cells) | other results
1 | COC1C=CC23c4cc5c(cc4CN(CC2O)C3C1)OCO5 (stereo not drawn) [Compound 11, haemanthamine] | 2.7 ± 0.72 | 3.95 | 0.68 | 1.64 | 0.71 | 1.71 | 6.5 ± 1.1 | 1.7 | antiproliferative activity against MDA-MB-231 breast cancer cells (MDA-MB-231 cells [1]): antiproliferative activity; IC50 [2]: 0.73 to 16.3 µM; IC50 (MDA-MB-231 cells [3]): 3.9 ± 0.97 µM; IC50 (MDA-MB-468 cells; Homo sapiens, MDA-MB-468): 3.8 ± 0.4 µM; IC50 (MCF-7 cells; Homo sapiens, MCF7): 1.6 ± 0.1 µM
2 | CN1CCC2=C[C@H](O)C3OC(=O)c4cc5c(cc4C3C21)OCO5 (stereo partly drawn) [Compound 4, hippeastrine] | – | 24.7 ± 4.3 | – | – | – | – | – | – | –
3 | COc1cc(O)c(C(C)=O)c(OC)c1 [Compound 1, 4,6-dimethoxy-2-hydroxy acetophenone] | – | > 40 | – | – | – | – | – | – | –
4 | COc1cc([C@@H]2c3cc4c(cc3[C@@H](O[C@@H]3O[C@@H]5CO[C@@H](C)O[C@H]5[C@H](O)[C@H]3O)[C@H]3COC(=O)[C@H]23)OCO4)cc(OC)c1O [Etoposide, reference compound] | 3.8 ± 0.09 | 2.9 ± 0.1 | 1.31 | 0.79 | 2.23 | 1.35 | 2.3 ± 0.13 | 1.23 | IC50 (MDA-MB-468 cells; Homo sapiens, MDA-MB-468, 48 h): 1.7 ± 0.05 µM; IC50 (MCF-7 cells; Homo sapiens, MCF7, 48 h): 3.1 ± 0.05 µM; SI D/C (MCF-7 cells): 0.74
5 | COc1cc2c(cc1O)C(=O)OC1CC=C3CCN(C)C3C21 (stereo not drawn) [Compound 9, 8-O-demethylhomolycorine] | – | > 40 | – | – | – | – | – | – | –
6 | COc1cc(/C=C/C(=O)NCCc2ccc(O)cc2)ccc1O [Compound 2, N-trans-feruloyl-tyramine] | – | > 40 | – | – | – | – | – | – | –
7 | CO[C@@H]1C=C[C@@]23c4cc5c(cc4CO[C@]2(O)CN(C)[C@H]3C1)OCO5 [Compound 10, tazettine] | – | 39 ± 1.41 | – | – | – | – | – | – | –
8 | COc1ccc2c3c1O[C@H]1C[C@H](O)C=C[C@@]31CCN(C)C2 [Compound 8, epi-galanthamine] | – | > 40 | – | – | – | – | – | – | –
9 | COc1ccc2c3c1O[C@H]1C[C@@H](O)C=C[C@@]31C(O)CN(C)C2 (stereo partly drawn) [Compound 6, 11α-hydroxygalanthamine] | – | > 40 | – | – | – | – | – | – | –
10 | O[C@H]1[C@H]2c3cc4c(cc3CN3CCC(=C[C@@H]1O)[C@H]23)OCO4 [Compound 5, lycorine] | 1.3 ± 0.3 | 0.92 | 1.41 | 3.26 | 0.91 | 2.11 | 3 ± 0.3 | 1.78 | antiproliferative activity against MDA-MB-231 breast cancer cells (MDA-MB-231 cells [1]): antiproliferative activity; IC50 [2, 4]: 0.73 to 16.3 µM; IC50 (MDA-MB-231 cells [3]): 0.9 ± 0.2 µM; IC50 (MDA-MB-468 cells; Homo sapiens, MDA-MB-468, 48 h): 1.42 µM; IC50 (MDA-MB-468 cells): 1.4 ± 0.01 µM; IC50 (MCF-7 cells; Homo sapiens, MCF7, 48 h): 0.73 µM; IC50 (MCF-7 cells): 0.7 ± 0.01 µM
11 | CO[C@@H]1C=C[C@@]23c4cc5c(cc4[C@@H](O)N(C[C@H]2O)[C@H]3C1)OCO5 [Compound 3, haemanthidine] | 2.7 ± 0.15 | 4.88 | 0.56 | 1.02 | 0.78 | 1.42 | 5 ± 0.5 | 1.01 | antiproliferative activity against MDA-MB-231 breast cancer cells (MDA-MB-231 cells [1]): antiproliferative activity; IC50 [2, 4]: 0.73 to 16.3 µM; IC50 (MDA-MB-231 cells [3]): 4.9 ± 1.16 µM; IC50 (MDA-MB-468 cells; Homo sapiens, MDA-MB-468, 48 h): 3.5 ± 0.3 µM; IC50 (MCF-7 cells; Homo sapiens, MCF7, 48 h): 2.7 ± 0.1 µM; SI D/C (MCF-7 cells): 1.85
